Measurements published in patent US9084765B2, “Use of amisulpride as an anti-emetic” (Acacia Pharma Limited, priority 2010, dated 2015).
Entries after “also recorded” stand apart in the source; their conditions may differ.

Assays:
[1] = system: ferrets challenged with apomorphine; assay: Apomorphine-induced emesis in ferrets; type: in vivo, ferret; conditions: 2 hour observation
Method: (§1) Amisulpride, white powder, was dissolved in dimethylsulfoxide and then diluted in physiological saline. For vehicle control, physiological saline was used for s,c, administration (apomorphine experiments) and 8.3% DMSO in physiological saline was used for i.v. administration (morphine, cisplatin). Apomorphine hydrochloride hemihydrates, white powder, was dissolved in physiological saline. The method used to test antiemetic activity preclinically follows that described by Gardner et al. (Brit. J. Pharmacol., 116: 3158-3163, 1995) and uses ferrets. Sixty minutes before administration of the test substance, ferrets are placed in individual stainless steel cages (40×50×34 cm) with a grid floor. Then, the animals are challenged with apomorphine (0.25 mg/kg s.c.), morphine (0.4 mg/kg i.p.) or cisplatin (10 mg/kg i.p.) and immediately observed over at least a 2-hour period. Parameters recorded include: number of ferrets showing retches and vomits; latency to first retching; latency to first vomiting; number of retches; vomiting (number of vomits); number of emesis periods and mean duration of emesis periods. Retching is defined as a rhythmic respiratory movement against a closed glottis, while vomiting is defined as a forced expulsion of upper gastrointestinal contents. […]

[2] = system: ferrets challenged with morphine; assay: Morphine-induced emesis in ferrets; type: in vivo, ferret
Method: as §1, with “Morphine hydrochloride,” for “Apomorphine hydrochloride hemihydrates,”

[3] = system: ferrets challenged with cisplatin; assay: Cisplatin-induced emesis in ferrets; type: in vivo, ferret
Method: Amisulpride, white powder, was dissolved in dimethylsulfoxide and then diluted in physiological saline. For vehicle control, physiological saline was used for s,c, administration (apomorphine experiments) and 8.3% DMSO in physiological saline was used for i.v. administration (morphine, cisplatin). […] Cisplatinum II diamine dichloride, yellow powder, was dispersed in 0.2% hydroxymethylcellulose in physiological saline. The method used to test antiemetic activity preclinically follows that described by Gardner et al. (Brit. J. Pharmacol., 116: 3158-3163, 1995) and uses ferrets. Sixty minutes before administration of the test substance, ferrets are placed in individual stainless steel cages (40×50×34 cm) with a grid floor. Then, the animals are challenged with apomorphine (0.25 mg/kg s.c.), morphine (0.4 mg/kg i.p.) or cisplatin (10 mg/kg i.p.) and immediately observed over at least a 2-hour period. Parameters recorded include: number of ferrets showing retches and vomits; latency to first retching; latency to first vomiting; number of retches; vomiting (number of vomits); number of emesis periods and mean duration of emesis periods. Retching is defined as a rhythmic respiratory movement against a closed glottis, while vomiting is defined as a forced expulsion of upper gastrointestinal contents. […]

[4] = reported in the UKPAR (Special Warnings and Precautions for Use); cited from earlier work
[5] = system: apomorphine-induced vomiting in the dog; conditions: reported in U.S. Pat. No. 4,294,828; cited from earlier work

Structure (SMILES): CCN1CCCC1CNC(=O)c1cc(S(=O)(=O)CC)c(N)cc1OC (centres unmarked) [Amisulpride]
- effect on apomorphine emesis ([1]; amisulpride 10 μg/kg s.c.): totally inhibited
- effect on apomorphine emesis ([1]; amisulpride 100 μg/kg s.c.): totally inhibited
- incidence of vomits ([2]; amisulpride 3 mg/kg i.v. before morphine 0.4 mg/kg i.p.): abolished
- effect on emetic effects induced by morphine ([2]; i.v. 5 minutes before morphine, 2 hour observation, versus vehicle control): reduces the emetic effects induced by morphine, in dose-dependent manner
- efficacy compared with droperidol ([3]; amisulpride 0.6 mg/kg (one animal excluded) and 2 mg/kg versus droperidol 3 mg/kg given 5 minutes before cisplatin): better than droperidol at 3 mg/kg; also recorded: more effective than droperidol at 3 mg/kg
- effect on emetic effects of cisplatin ([3]; i.v. before cisplatin, 72 hour period, versus vehicle control): reduces the emetic effects of cisplatin, in dose-dependent manner
- prolongation of the QT interval [4]: induces a dose dependent prolongation of the QT interval
- apomorphine-induced vomiting [5]: inhibit apomorphine-induced vomiting in the dog
